Measurements taken from ChEMBL document CHEMBL1201862, “PubChem BioAssay data set” (2004).
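Where inhibition never reached the appropriate level, the endpoint shown equals the highest concentration tested. Otherwise, values were interpolated linearly from a five-concentration, 48-hour dose response in 96-well plates. GI50 marks 50% less growth.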 Active and inactive are the calls of the source. Cut-off read from the data, not from the text of the source: active = GI50 up to about 1.1 µM and inactive = higher.

Columns and labels:
Assay in all cases: NCI anticancer screen, dose series, 48 h
RPMI-8226 = system: RPMI-8226
SK-MEL-5 = system: SK-MEL-5
IGROV-1 = system: IGROV-1
OVCAR-8 = system: OVCAR-8
OVCAR-3 = system: OVCAR-3
NCI-H460 = system: NCI-H460
CCRF-CEM = system: CCRF-CEM
U-251 = system: U-251
HCC 2998 = system: HCC 2998
HOP-62 = system: HOP-62
UACC-62 = system: UACC-62
UACC-257 = system: UACC-257
OVCAR-5 = system: OVCAR-5
COLO 205 = system: COLO 205
HT-29 = system: HT-29
Malme-3M = system: Malme-3M
SF-268 = system: SF-268
SK-MEL-28 = system: SK-MEL-28
LOX IMVI = system: LOX IMVI
SW-620 = system: SW-620

Row | Compound | GI50 (RPMI-8226) | GI50 (SK-MEL-5) | GI50 (IGROV-1) | GI50 (OVCAR-8) | GI50 (OVCAR-3) | GI50 (NCI-H460) | GI50 (CCRF-CEM) | GI50 (U-251) | GI50 (HCC 2998) | GI50 (HOP-62) | GI50 (UACC-62) | GI50 (UACC-257) | GI50 (OVCAR-5) | GI50 (COLO 205) | GI50 (HT-29) | GI50 (Malme-3M) | GI50 (SF-268) | GI50 (SK-MEL-28) | GI50 (LOX IMVI) | GI50 (SW-620)
1 | CCOCCOc1ccc(OCCOCC)cc1 | 3.51 µM (inactive) | 22.4 µM (inactive) | 20 µM (inactive) | 16.6 µM (inactive) | 30.1 µM (inactive) | 29.5 µM (inactive) | 2.74 µM (inactive) | 34 µM (inactive) | 37.3 µM (inactive) | > 100 µM (inactive) | 19 µM (inactive) | 17.5 µM (inactive) | > 100 µM (inactive) | 15.9 µM (inactive) | 16.9 µM (inactive) | 13.4 µM (inactive) | 17 µM (inactive) | 20.3 µM (inactive) | 17.9 µM (inactive) | 19.2 µM (inactive)
2 | CSCC(CO)NC(=O)/C=C/c1c(C)[nH]c(=O)[nH]c1=O (stereo not given) | 661 µM (inactive) | > 820 µM (inactive) | > 875 µM (inactive) | 228 µM (inactive) | 53.1 µM (inactive) | 671 µM (inactive) | 153 µM (inactive) | 462 µM (inactive) | 85.1 µM (inactive) | 596 µM (inactive) | > 800 µM (inactive) | 820 µM (inactive) | 352 µM (inactive) | 68.5 µM (inactive) | > 826 µM (inactive) | 307 µM (inactive) | 223 µM (inactive) | > 875 µM (inactive) | 457 µM (inactive) | 366 µM (inactive)
3 | CC1(C)CC[C@]2(C)CC[C@]3(C)C(=CC[C@@H]4[C@@]5(C)CCC(=O)C(C)(C)[C@@H]5[C@H](O)C[C@]43C)[C@@H]2C1 | 23 µM (inactive) | 17.4 µM (inactive) | 17 µM (inactive) | 18.9 µM (inactive) | 16.5 µM (inactive) | 18 µM (inactive) | 30.8 µM (inactive) | 16.9 µM (inactive) | 15.5 µM (inactive) | 17 µM (inactive) | 15.9 µM (inactive) | 17.7 µM (inactive) | 16 µM (inactive) | 17.4 µM (inactive) | 17 µM (inactive) | 17.5 µM (inactive) | 17.8 µM (inactive) | 17.6 µM (inactive) | 17.1 µM (inactive) | 19.8 µM (inactive)
4 | CC(C)=CC(=O)OC1C2C(C)=CC(O)C(O)C2(C)C2C3(O)OCC24C(CC(=O)OC14)C(C)C3O (stereo not given) | 0.0346 µM (active) | 0.0252 µM (active) | 0.0581 µM (active) | 0.166 µM (active) | 0.0339 µM (active) | 0.0596 µM (active) | 0.0462 µM (active) | 0.0519 µM (active) | 0.101 µM (active) | 0.168 µM (active) | 0.0649 µM (active) | 0.104 µM (active) | 0.802 µM (active) | 0.778 µM (active) | 0.137 µM (active) | 0.0286 µM (active) | 0.182 µM (active) | 0.0362 µM (active) | 0.0371 µM (active) | 0.162 µM (active)
5 | N[C@@H](CSCSC[C@H](N)C(=O)O)C(=O)O | > 225 µM (inactive) | > 225 µM (inactive) | > 225 µM (inactive) | 35.6 µM (inactive) | > 225 µM (inactive) | > 225 µM (inactive) | 89.5 µM (inactive) | > 225 µM (inactive) | > 225 µM (inactive) | > 225 µM (inactive) | > 225 µM (inactive) | > 225 µM (inactive) | > 225 µM (inactive) | > 225 µM (inactive) | > 225 µM (inactive) | > 225 µM (inactive) | > 225 µM (inactive) | > 225 µM (inactive) | > 225 µM (inactive) | > 225 µM (inactive)
